{"source": "paper PMC9525273", "about": "(Nature Communications, 2022)", "key": {"[1]": {"biological_target": "T1, PfATP4^G358S (membranes from Dd2-Polδ-PfATP4^G358S parasites) (Plasmodium falciparum, UniProt A0A143ZZK9, G358S)", "T1 sequence (A0A143ZZK9 1-1264 G358S)": "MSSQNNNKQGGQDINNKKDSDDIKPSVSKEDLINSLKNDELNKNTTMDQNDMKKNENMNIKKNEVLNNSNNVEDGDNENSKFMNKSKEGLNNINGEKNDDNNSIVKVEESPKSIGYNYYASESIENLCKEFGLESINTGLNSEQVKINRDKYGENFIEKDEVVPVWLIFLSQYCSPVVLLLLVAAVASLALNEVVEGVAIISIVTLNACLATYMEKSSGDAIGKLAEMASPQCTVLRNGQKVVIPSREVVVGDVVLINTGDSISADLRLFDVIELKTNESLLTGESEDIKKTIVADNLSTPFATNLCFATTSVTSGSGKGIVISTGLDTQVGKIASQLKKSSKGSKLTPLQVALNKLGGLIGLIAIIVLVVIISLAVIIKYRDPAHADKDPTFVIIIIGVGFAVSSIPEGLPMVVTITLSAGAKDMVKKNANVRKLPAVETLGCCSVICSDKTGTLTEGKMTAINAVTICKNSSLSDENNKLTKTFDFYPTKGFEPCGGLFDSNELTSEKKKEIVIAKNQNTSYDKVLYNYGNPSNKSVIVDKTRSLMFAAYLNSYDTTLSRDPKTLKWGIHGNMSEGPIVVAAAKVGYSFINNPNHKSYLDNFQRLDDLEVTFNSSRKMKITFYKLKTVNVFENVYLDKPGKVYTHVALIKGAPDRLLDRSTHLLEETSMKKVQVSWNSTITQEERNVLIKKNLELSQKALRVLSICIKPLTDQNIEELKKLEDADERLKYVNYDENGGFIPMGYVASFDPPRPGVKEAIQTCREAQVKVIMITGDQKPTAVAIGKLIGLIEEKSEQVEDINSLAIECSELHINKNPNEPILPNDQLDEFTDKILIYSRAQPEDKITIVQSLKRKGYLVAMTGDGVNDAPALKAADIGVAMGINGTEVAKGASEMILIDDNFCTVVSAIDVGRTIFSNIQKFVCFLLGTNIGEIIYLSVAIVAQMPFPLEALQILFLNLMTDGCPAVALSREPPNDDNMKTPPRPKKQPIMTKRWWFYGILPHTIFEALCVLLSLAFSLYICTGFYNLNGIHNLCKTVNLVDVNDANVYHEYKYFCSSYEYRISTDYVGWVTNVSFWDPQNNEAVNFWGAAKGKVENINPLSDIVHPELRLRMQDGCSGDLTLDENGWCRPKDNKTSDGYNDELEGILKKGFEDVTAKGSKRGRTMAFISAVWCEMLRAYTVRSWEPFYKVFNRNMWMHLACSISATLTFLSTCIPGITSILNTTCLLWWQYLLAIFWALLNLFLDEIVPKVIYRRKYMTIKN", "test": "Membrane ATPase assay, ATP4-associated (Na+-dependent) ATPase activity", "type": "biochemical", "set-up": "IC50 for inhibition of ATP4-associated ATPase activity, MEAN / IC50 for inhibition of ATP4-associated ATPase activity: unit: nM", "conditions": "for IC50 for ATP4-associated ATPase activity: membranes from Dd2-Polδ-PfATP4G358S, mean ± SEM; for PfATP4-associated ATPase activity (% of control): Dd2-Polδ-PfATP4G358S", "method": "Membranes from isolated P. falciparum or extracellular T. gondii parasites were prepared by lysing parasites in ice-cold deionized water containing a 1:500 dilution of Protease Inhibitor Cocktail Set III (Merck Millipore), then washing the membrane preparation three times in ice-cold deionized water (with protease inhibitors present for the first two washes)[15]. Protein concentrations in the membrane preparations were measured using a Bradford assay. The PiColorLock Gold Phosphate Detection System (Innova Biosciences) was used to measure the production of Pi from hydrolysis of ATP[15]. Membrane preparations were diluted in either a high Na^+ solution (yielding final conditions in the reactions of 150 mM NaCl, 20 mM KCl, 2 mM MgCl2, 50 mM Tris, pH 7.2) or a Na^+-free solution (yielding final conditions of 150 mM choline chloride, 20 mM KCl, 2 mM MgCl2, 50 mM Tris, pH 7.2) to achieve a total protein concentration of 50 μg/mL. […] The reactions were performed at 37 °C, and were initiated by the addition of 1 mM ATP (Na2ATP۰3H2O; MP Biomedicals) and terminated 10 min later by adding 100 μL of reaction mixture (in duplicate) to 25 μL “Gold mix” in a 96-well plate. […] Background values (averaged from wells containing all components, but to which ATP was not added until after the membrane was exposed to Gold mix) were subtracted from the data. For each treatment, the ATPase activity associated with the (Na^+-dependent) PfATP4 and TgATP4 proteins was calculated by subtracting data obtained in the low Na^+ condition (containing only the 2 mM Na^+ introduced on addition of 1 mM Na2ATP) from that obtained in the high Na^+ condition."}, "[2]": {"test_system": "parasite lines with a G358S mutation in PfATP4", "test": "P. falciparum proliferation assays, statements on all lines with the G358S mutation", "type": "cell-based, Plasmodium falciparum", "method": "Two types of parasite proliferation assays were employed in this study, with both yielding highly consistent results. For the NF54-based lines and Dd2-B2-PfATP4^G358S and its parent, assays were initiated with cultures containing predominantly ring-stage parasites with a parasitaemia of 0.3% and a haematocrit of 1%. All assays using NF54 were performed in culture media containing 10% O + human serum. The duration of the assays was 72 h and the concentration of DMSO was <0.5% (v/v). Serial dilutions of the test compounds were performed using a Tecan D300e digital dispenser, with parasite cultures added manually. Parasite survival was assessed by flow cytometry on an Intellicyt iQue3 (Essen Bioscience), with 1× SYBR Green I (Invitrogen) and 200 nM MitoTracker Deep Red FM (Invitrogen) used to stain the nucleus and the mitochondria in live parasites, respectively. The gating strategy used to quantify parasite survival, performed using FlowJo version 10 (FlowJo LLC.), is illustrated in Supplementary Fig. 9. IC50 and IC90 values were calculated by linear interpolation of the dose-response data.\nFor experiments with all other parasites, the effects of compounds of interest on parasite proliferation was measured in 96-well plates containing serial dilutions of the compounds in culture medium, with a fluorescent DNA-intercalating dye used to detect surviving parasites. The assays were initiated with erythrocytes infected with predominantly ring-stage parasites, and the starting parasitaemia and haematocrit were both 1%. […] Fluorescence was measured using a FLUOstar OPTIMA plate reader (BMG LABTECH), with OPTIMA version 2.20R2 and MARS Data Analysis Software version 3.01 R2 (BMG LABTECH)."}}, "note": "Values joined by “and” are separate entries in the source; they are usually repeats but may differ in a detail not shown here. Equal values may be shown once."}
{"smiles": "C[C@H]1Cc2c([nH]c3cc(Cl)c(F)cc23)[C@@]2(N1)C(=O)Nc1ccc(Cl)cc12", "note": "[Cipargamin]", "values": [{"measurement": "IC50 for inhibition of ATP4-associated ATPase activity, MEAN", "setting": "[1]; Dd2-Polδ-PfATP4G358S membranes, MEAN, source data of Table 1 (nM there)", "result": 99.4}, {"measurement": "IC50 for ATP4-associated ATPase activity", "setting": "[1]", "result": "99 ± 21 (4) (P = 0.004) nM"}]}
{"smiles": "C[C@H]1[C@@H](O)O[C@@H]2O[C@@]3(C)CC[C@H]4[C@H](C)CC[C@@H]1[C@@]24OO3", "note": "[Dihydroartemisinin]", "values": [{"measurement": "effect of the G358S mutation in PfATP4 on parasite susceptibility", "setting": "[2]; G358S lines vs PfATP4 wild-type controls", "result": "no effect"}]}
{"smiles": "N#Cc1cc(NC(=O)[C@H]2c3ccccc3C(=O)N(CC(F)(F)F)[C@@H]2c2cccnc2)ccc1F", "note": "[(+)-SJ733]", "values": [{"measurement": "IC50 for inhibition of ATP4-associated ATPase activity", "setting": "[1]; Dd2-Polδ-PfATP4G358S membranes, single experiments, source data of Table 1 (nM there)", "result": "816 and 877 and 793"}, {"measurement": "IC50 for ATP4-associated ATPase activity", "setting": "[1]", "result": "829 ± 25 (3) (P = 5 × 10^−6) nM"}, {"measurement": "IC50", "setting": "[2]; Plasmodium falciparum, all parasite lines with a G358S mutation in PfATP4 tested in this study", "result": "> 9", "unit": "µM"}]}
{"smiles": "N#Cc1cc(NC(=O)[C@H]2c3ccccc3C(=O)N(CC(F)(F)F)[C@@H]2c2cccnc2)ccc1F", "note": "[(+)SJ733]", "values": [{"measurement": "PfATP4-associated ATPase activity (% of control)", "setting": "[1]; [(+)SJ733] 0.122 nM, MEAN", "result": "85.0 % of control"}, {"measurement": "PfATP4-associated ATPase activity (% of control)", "setting": "[1]; [(+)SJ733] 0.122 nM, single experiments, 0.000122 µM", "result": "115.8 % of control and 74.1 % of control and 65.2 % of control"}, {"measurement": "PfATP4-associated ATPase activity (% of control)", "setting": "[1]; [(+)SJ733] 0.244 nM, MEAN", "result": "125.3 % of control"}, {"measurement": "PfATP4-associated ATPase activity (% of control)", "setting": "[1]; [(+)SJ733] 0.244 nM, single experiments, 0.000244 µM", "result": "139.0 % of control and 119.0 % of control and 117.8 % of control"}, {"measurement": "PfATP4-associated ATPase activity (% of control)", "setting": "[1]; [(+)SJ733] 0.5 nM, MEAN", "result": "90.2 % of control"}, {"measurement": "PfATP4-associated ATPase activity (% of control)", "setting": "[1]; [(+)SJ733] 0.5 nM, single experiments, 0.0005 µM", "result": "95.6 % of control and 76.4 % of control and 98.6 % of control"}, {"measurement": "PfATP4-associated ATPase activity (% of control)", "setting": "[1]; [(+)SJ733] 1.0 nM, MEAN", "result": "98.3 % of control"}, {"measurement": "PfATP4-associated ATPase activity (% of control)", "setting": "[1]; [(+)SJ733] 2.0 nM, MEAN", "result": "109.4 % of control"}, {"measurement": "PfATP4-associated ATPase activity (% of control)", "setting": "[1]; [(+)SJ733] 2.0 nM, single experiments, 0.002 µM", "result": "114.6 % of control and 135.7 % of control and 77.8 % of control"}, {"measurement": "PfATP4-associated ATPase activity (% of control)", "setting": "[1]; [(+)SJ733] 3.9 nM, MEAN", "result": "81.9 % of control"}, {"measurement": "PfATP4-associated ATPase activity (% of control)", "setting": "[1]; [(+)SJ733] 3.9 nM, single experiments, 0.0039 µM", "result": "93.0 % of control and 73.2 % of control and 79.5 % of control"}, {"measurement": "PfATP4-associated ATPase activity (% of control)", "setting": "[1]; [(+)SJ733] 7.8 nM, MEAN", "result": "84.3 % of control"}, {"measurement": "PfATP4-associated ATPase activity (% of control)", "setting": "[1]; [(+)SJ733] 7.8 nM, single experiments, 0.0078 µM", "result": "82.0 % of control and 99.5 % of control and 71.2 % of control"}, {"measurement": "PfATP4-associated ATPase activity (% of control)", "setting": "[1]; [(+)SJ733] 15.6 nM, MEAN", "result": "119.8 % of control"}, {"measurement": "PfATP4-associated ATPase activity (% of control)", "setting": "[1]; [(+)SJ733] 15.6 nM, single experiments, 0.0156 µM", "result": "88.8 % of control and 152.3 % of control and 118.3 % of control"}, {"measurement": "PfATP4-associated ATPase activity (% of control)", "setting": "[1]; [(+)SJ733] 31.3 nM, MEAN", "result": "94.2 % of control"}, {"measurement": "PfATP4-associated ATPase activity (% of control)", "setting": "[1]; [(+)SJ733] 31.3 nM, single experiments, 0.0313 µM", "result": "92.0 % of control and 104.2 % of control and 86.4 % of control"}, {"measurement": "PfATP4-associated ATPase activity (% of control)", "setting": "[1]; [(+)SJ733] 62.5 nM, MEAN", "result": "103.2 % of control"}, {"measurement": "PfATP4-associated ATPase activity (% of control)", "setting": "[1]; [(+)SJ733] 62.5 nM, single experiments, 0.0625 µM", "result": "102.4 % of control and 79.6 % of control and 127.6 % of control"}, {"measurement": "PfATP4-associated ATPase activity (% of control)", "setting": "[1]; [(+)SJ733] 250 nM, MEAN", "result": "82.2 % of control"}, {"measurement": "PfATP4-associated ATPase activity (% of control)", "setting": "[1]; [(+)SJ733] 250 nM, single experiments, 0.25 µM", "result": "91.0 % of control and 86.1 % of control and 69.4 % of control"}, {"measurement": "PfATP4-associated ATPase activity (% of control)", "setting": "[1]; [(+)SJ733] 500 nM, MEAN", "result": "53.9 % of control"}, {"measurement": "PfATP4-associated ATPase activity (% of control)", "setting": "[1]; [(+)SJ733] 1000 nM, MEAN", "result": "56.2 % of control"}, {"measurement": "PfATP4-associated ATPase activity (% of control)", "setting": "[1]; [(+)SJ733] 2000 nM, MEAN", "result": "20.4 % of control"}, {"measurement": "PfATP4-associated ATPase activity (% of control)", "setting": "[1]; [(+)SJ733] 4000 nM, MEAN", "result": "-1.2 % of control"}, {"measurement": "PfATP4-associated ATPase activity (% of control)", "setting": "[1]; [(+)SJ733] 8000 nM, MEAN", "result": "-15.8 % of control"}]}
